A short description of experiment [1]: relative weight change by rats injected daily. Type of experiment: in vivo, rat. The conditions noted are these: for relative weight change: same dose; for effectiveness in weight control: FIGS. 5 and 6. The text has this: FIG. 5 is a graph illustrating relative weight change by rats injected daily with the same dose of either a placebo, UGP269 (SEQ ID NO: 12) or UGP 271 (SEQ ID NO: 13), at 7 and 14 days after commencement of the injection regimen. […] UGP 271 contained nearly the same sequence of amino acids as UGP269 except for the replacement of three amino acids at positions 26, 27 and 29.
FIG. 6 is a graph illustrating relative weight change by rats injected daily with the same dose of either a placebo, salmon calcitonin, UGP 271 (SEQ ID NO: 13) or UGP 281 (SEQ ID NO: 14) at 7 and 14 days after commencement of the injection regimen. FIG. 1 is a graph illustrating data from a bioassay comparing cAMP response for a peptide of the invention, SEQ ID NO:3, versus recombinant salmon calcitonin. […] UGP281 and UGP271 had identical amino acid sequences except that UGP281 was acylated at the N-terminus with acetate.

Experiment [2] can be described thus: placebo controlled crossover study with Beagle dogs, oral enteric-coated capsules (food intake, weight). Type of experiment: in vivo, Beagle dog. The conditions noted are these: for effect on food intake / change in weight during the dosing period: oral capsules; for effect on food intake: equivalent doses, week of dosing, FIG. 2; for change in weight during the dosing period: same dose, FIG. 3. The text has this:
FIG. 2 is a graph illustrating the effect on food consumption provided by SEQ ID NO: 3 versus a placebo and two known appetite suppressants in a Beagle dog study. Average daily change in food consumption is shown following administration of oral capsules containing various doses of sCT, PYY or SEQ ID NO: 3 given to beagle dogs for four to seven days.
FIG. 3 is a graph illustrating the effect on weight provided by SEQ ID NO: 3 versus a placebo and two known appetite suppressants in a Beagle dog study. Average daily change in weight is shown following administration of oral capsules containing various doses of sCT, PYY, or SEQ ID NO: 3 given to beagle dogs for four to seven days.
The effect of peptide SEQ ID NO: 3 on food intake was investigated in a placebo controlled crossover study with Beagle dogs. Peptide SEQ ID NO: 3, as well as salmon calcitonin (sCT) and PYY(3-36)NH2 were formulated in enteric-coated capsules for oral delivery. The capsules also contained excipients that inhibit proteases and enhance the absorption of peptides. Placebo capsules contained the same excipients without the peptide. Food and water intake, as well as the weight of the dogs was monitored daily before, during, and after the dosing period. Dogs were allowed access to a known amount of food for an 8 hour period every day, and water was provided ad libitum. […] The food intake of dogs given a placebo remained unchanged.

Another experiment deals with T1, calcitonin receptor (Homo sapiens, UniProt P30988).
T1 construct: endogenous in cells; host or cells: T47D cells
T1 sequence (P30988 25-474): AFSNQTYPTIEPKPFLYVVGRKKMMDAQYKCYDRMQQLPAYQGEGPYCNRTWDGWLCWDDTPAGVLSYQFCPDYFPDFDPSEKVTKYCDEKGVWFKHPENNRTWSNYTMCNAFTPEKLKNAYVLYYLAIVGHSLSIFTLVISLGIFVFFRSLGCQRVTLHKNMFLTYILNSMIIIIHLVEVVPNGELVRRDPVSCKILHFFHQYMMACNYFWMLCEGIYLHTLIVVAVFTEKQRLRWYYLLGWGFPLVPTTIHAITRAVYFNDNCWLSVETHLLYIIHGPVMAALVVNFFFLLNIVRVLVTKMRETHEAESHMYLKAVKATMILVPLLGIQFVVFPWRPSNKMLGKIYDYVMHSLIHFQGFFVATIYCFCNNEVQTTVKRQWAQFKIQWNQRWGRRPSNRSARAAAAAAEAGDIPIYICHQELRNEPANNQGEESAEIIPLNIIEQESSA
Put plainly: cAMP response bioassay with T47D cells. Type of experiment: cell-based. The conditions noted are these: FIG. 1, versus recombinant salmon calcitonin. The method, then:
FIG. 1 is a graph illustrating data from a bioassay comparing cAMP response for a peptide of the invention, SEQ ID NO: 3, versus recombinant salmon calcitonin. Two replicate bioassay experiments were performed measuring the cAMP response with T47D cells. Each experiment compared three samples of SEQ ID NO: 3 to a sample of rsCT.

Experiment [3] has as its target T2, calcitonin receptors on T47D cells (Homo sapiens, UniProt P30988).
T2 construct: endogenous in cells; host or cells: T47D cells
T2 sequence (P30988 25-474): T1 sequence (P30988 25-474)
The experiment can be described thus: binding to calcitonin receptors on T47D cells. The text has this:
FIG. 4 is a graph illustrating calcitonin-like properties of three peptides of the invention in comparison to salmon calcitonin in an assay that measures binding to calcitonin receptors on T47D cells. The three peptides of the invention are UGP269 (SEQ ID NO: 12), UGP 271 (SEQ ID NO: 13) and UGP281 (SEQ ID NO: 14).

Where [4] appears, read: rats injected intramuscularly daily, two weeks, FIG. 6.
Setting [5] is: rats injected daily, 7 and 14 days, FIG. 5, versus placebo.

Entries after “also recorded” stand apart in the source; their conditions may differ. Bridge positions count the residues as written; N and C are the ends. Ends that are not written are not given here.

The text below walks through data of patent US9833494B2, “Methods of treating medical conditions using peptides” (KeyBioscience AG, priority 2009, dated 2017).

`CC(C)C[C@H](NC(=O)[C@H](CCCCN)NC(=O)CNC(=O)[C@H](CC(C)C)NC(=O)[C@@H](NC(=O)[C@@H]1CSSC[C@H](N)C(=O)N[C@@H](CO)C(=O)N[C@@H](CC(N)=O)C(=O)N[C@@H](CC(C)C)C(=O)N[C@@H](CO)C(=O)N[C@@H]([C@@H](C)O)C(=O)N1)C(C)C)C(=O)N[C@@H](CO)C(=O)N[C@@H](CCC(N)=O)C(=O)N[C@@H](CCC(=O)O)C(=O)N[C@@H](CC(C)C)C(=O)N[C@@H](Cc1c[nH]cn1)C(=O)N[C@@H](CCCCN)C(=O)N[C@@H](CC(C)C)C(=O)N[C@@H](CCC(N)=O)C(=O)N[C@H](C(=O)N[C@@H](Cc1ccc(O)cc1)C(=O)N1CCC[C@H]1C(=O)N[C@@H](CCCNC(=N)N)C(=O)N[C@H](C(=O)N[C@@H](CC(N)=O)C(=O)N[C@H](C(=O)NCC(=O)N[C@@H](CO)C(=O)NCC(=O)N[C@H](C(=O)N1CCC[C@H]1C(N)=O)[C@@H](C)O)[C@@H](C)O)[C@@H](C)O)[C@@H](C)O` [sCT, salmon calcitonin]: in experiment [1] (setting [4]), the relative weight change entry is “significant weight loss”. For the same molecule, in experiment [2], the “effect on food intake” value is given as “significantly decreased food intake” and the “change in weight during the dosing period” value is given as “small but significant reduction in weight”.
As for PYY(3-36)NH2, in experiment [2], the “effect on food intake” value is reported as “lesser effect” and the “change in weight during the dosing period” value came out at 0.05 % per day.
Take “SEQ ID NO: 3: salmon calcitonin sequence except asparagine at position 30 and tyrosine at position 32, amidated at tyrosine-32 (CSNLSTCVLGKLSQELHKLQTYPRTNTGSNTY-NH2; ends and bridges not checked)”: the “cAMP response (indicator of calcitonin receptor activation) compared with salmon calcitonin” value with calcitonin receptor is “less potent when binding to the calcitonin receptor than is natural salmon calcitonin”. Further, in experiment [2] (FIGS. 1-3), the “potency in reducing food consumption relative to sCT” value is on record as “comparable to that of the bone anti-resorptive peptide sCT”. Also, in experiment [2], the “effect on food intake” value was “significantly decreased food intake” and the “change in weight during the dosing period” value is “small but significant reduction in weight”.
Regarding “UGP269: peptide of the invention, calcitonin analog (CSNLSTCVLGKLSQELHKLQTYPRTNTGSNTY-NH2; disulfide 1-7; N-terminus assumed; SMILES CC(C)C[C@H](NC(=O)[C@H](CCCCN)NC(=O)CNC(=O)[C@H](CC(C)C)NC(=O)[C@@H](NC(=O)[C@@H]1CSSC[C@H](N)C(=O)N[C@@H](CO)C(=O)N[C@@H](CC(N)=O)C(=O)N[C@@H](CC(C)C)C(=O)N[C@@H](CO)C(=O)N[C@@H]([C@@H](C)O)C(=O)N1)C(C)C)C(=O)N[C@@H](CO)C(=O)N[C@@H](CCC(N)=O)C(=O)N[C@@H](CCC(=O)O)C(=O)N[C@@H](CC(C)C)C(=O)N[C@@H](Cc1c[nH]cn1)C(=O)N[C@@H](CCCCN)C(=O)N[C@@H](CC(C)C)C(=O)N[C@@H](CCC(N)=O)C(=O)N[C@H](C(=O)N[C@@H](Cc1ccc(O)cc1)C(=O)N1CCC[C@H]1C(=O)N[C@@H](CCCNC(=N)N)C(=O)N[C@H](C(=O)N[C@@H](CC(N)=O)C(=O)N[C@H](C(=O)NCC(=O)N[C@@H](CO)C(=O)N[C@@H](CC(N)=O)C(=O)N[C@H](C(=O)N[C@@H](Cc1ccc(O)cc1)C(N)=O)[C@@H](C)O)[C@@H](C)O)[C@@H](C)O)[C@@H](C)O)”, in experiment [1] (setting [5]), the relative weight change result is on record as “less weight gain over two weeks than those injected with placebo”. Further, the “effectiveness in weight control” value in experiment [1] (rats) was “good effectiveness in weight control”. Also, the “binding to calcitonin receptors compared with sCT” value in experiment [3] (FIG. 4) is recorded as “less binding to sCT receptors than sCT; also recorded: less binding affinity for the calcitonin receptor than does salmon calcitonin”.
Consider “UGP271: nearly the same sequence as UGP269 except for the replacement of three amino acids at positions 26, 27 and 29 (CSNLSTCVLGKLSQELHKLQTYPRTDVGANTY-NH2; disulfide 1-7; N-terminus assumed; SMILES CC(C)C[C@H](NC(=O)[C@H](CCCCN)NC(=O)CNC(=O)[C@H](CC(C)C)NC(=O)[C@@H](NC(=O)[C@@H]1CSSC[C@H](N)C(=O)N[C@@H](CO)C(=O)N[C@@H](CC(N)=O)C(=O)N[C@@H](CC(C)C)C(=O)N[C@@H](CO)C(=O)N[C@@H]([C@@H](C)O)C(=O)N1)C(C)C)C(=O)N[C@@H](CO)C(=O)N[C@@H](CCC(N)=O)C(=O)N[C@@H](CCC(=O)O)C(=O)N[C@@H](CC(C)C)C(=O)N[C@@H](Cc1c[nH]cn1)C(=O)N[C@@H](CCCCN)C(=O)N[C@@H](CC(C)C)C(=O)N[C@@H](CCC(N)=O)C(=O)N[C@H](C(=O)N[C@@H](Cc1ccc(O)cc1)C(=O)N1CCC[C@H]1C(=O)N[C@@H](CCCNC(=N)N)C(=O)N[C@H](C(=O)N[C@@H](CC(=O)O)C(=O)N[C@H](C(=O)NCC(=O)N[C@@H](C)C(=O)N[C@@H](CC(N)=O)C(=O)N[C@H](C(=O)N[C@@H](Cc1ccc(O)cc1)C(N)=O)[C@@H](C)O)C(C)C)[C@@H](C)O)[C@@H](C)O)”, for which the results for the relative weight change entry in experiment [1] (setting [5]) and in experiment [1] (setting [4]) were “no weight gain” and “modest weight loss”, respectively. Besides, the “effectiveness in weight control” value in experiment [1] (rats) is listed as “good effectiveness in weight control”. Further, the “binding to calcitonin receptors compared with sCT” value in experiment [3] (FIG. 4) is given as “less binding to sCT receptors than sCT”; in experiment [3] (FIG. 4, listed as UGP 271), “less binding affinity for the calcitonin receptor than does salmon calcitonin”.
Take “UGP281: amino acid sequence identical to UGP271 except acylated at the N-terminus with acetate (Ac-CSNLSTCVLGKLSQELHKLQTYPRTDVGANTY-NH2; disulfide 1-7; SMILES CC(=O)N[C@H]1CSSC[C@@H](C(=O)N[C@H](C(=O)N[C@@H](CC(C)C)C(=O)NCC(=O)N[C@@H](CCCCN)C(=O)N[C@@H](CC(C)C)C(=O)N[C@@H](CO)C(=O)N[C@@H](CCC(N)=O)C(=O)N[C@@H](CCC(=O)O)C(=O)N[C@@H](CC(C)C)C(=O)N[C@@H](Cc2c[nH]cn2)C(=O)N[C@@H](CCCCN)C(=O)N[C@@H](CC(C)C)C(=O)N[C@@H](CCC(N)=O)C(=O)N[C@H](C(=O)N[C@@H](Cc2ccc(O)cc2)C(=O)N2CCC[C@H]2C(=O)N[C@@H](CCCNC(=N)N)C(=O)N[C@H](C(=O)N[C@@H](CC(=O)O)C(=O)N[C@H](C(=O)NCC(=O)N[C@@H](C)C(=O)N[C@@H](CC(N)=O)C(=O)N[C@H](C(=O)N[C@@H](Cc2ccc(O)cc2)C(N)=O)[C@@H](C)O)C(C)C)[C@@H](C)O)[C@@H](C)O)C(C)C)NC(=O)[C@H]([C@@H](C)O)NC(=O)[C@H](CO)NC(=O)[C@H](CC(C)C)NC(=O)[C@H](CC(N)=O)NC(=O)[C@H](CO)NC1=O)”: the relative weight change entry in experiment [1] (setting [4]) is recorded as “significant weight loss”. Moreover, the “enhancement of efficacy by the acetyl group on cysteine-1” value in experiment [1] (rats, FIG. 6, UGP281 versus UGP271) is given as “substantial enhancement of efficacy”. Besides, in experiment [1] (rats), the “effectiveness in weight control” value is recorded as “good effectiveness in weight control”. Moreover, the “binding to calcitonin receptors compared with sCT” value in experiment [3] (FIG. 4) was “less binding to sCT receptors than sCT; also recorded: less binding affinity for the calcitonin receptor than does salmon calcitonin”.
